# Read-outs that look alike come from different tables or passages of the source.
# Experiments:
# [1] = target: T1, Human neutrophil elastase (HNE) (Homo sapiens, UniProt P08246); assay: fluorometric protease assay, MeO-Suc-Ala-Ala-Pro-Val-AMC; format: biochemical
# T1 construct: gene ELANE; isolated enzyme, single polypeptide chain
# T1 sequence (P08246 30-247): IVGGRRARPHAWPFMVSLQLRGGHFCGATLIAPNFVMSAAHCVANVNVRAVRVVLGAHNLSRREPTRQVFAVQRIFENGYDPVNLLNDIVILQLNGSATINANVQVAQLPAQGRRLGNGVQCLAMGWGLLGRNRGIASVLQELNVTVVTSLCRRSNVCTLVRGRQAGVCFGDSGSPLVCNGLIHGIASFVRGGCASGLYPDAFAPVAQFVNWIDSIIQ
# Description: fluorometric protease assay, MeO-Suc-Ala-Ala-Pro-Val-AMC on Human neutrophil elastase (HNE)
# chymotrypsin = test system: T2, chymotrypsin; assay: fluorometric protease assay, Suc-Ala-Ala-Pro-Phe-AMC; format: biochemical, Homo sapiens; settings: […] Tris-HCl, […] NaCl pH […] °C; read-out: IC50 ± SD (μM) / Chymotrypsin
# T2 construct: gene CTRB1; enzyme from human pancreas
# Description: fluorometric protease assay, Suc-Ala-Ala-Pro-Phe-AMC on chymotrypsin
# trypsin = test system: T3, trypsin; assay: fluorometric protease assay, Z-Gly-Gly-Arg-AMC; format: biochemical, Homo sapiens; settings: […] Tris-HCl, […] NaCl pH […] °C; read-out: IC50 ± SD (μM) / Trypsin
# T3 construct: gene PRSS1; enzyme from human pancreas
# Description: fluorometric protease assay, Z-Gly-Gly-Arg-AMC on trypsin
# urokinase = target: T4, urokinase (Homo sapiens, UniProt P00749); assay: fluorometric protease assay, Z-Gly-Gly-Arg-AMC; format: biochemical; settings: read-out: IC50 ± SD (μM) / Urokinase
# T4 construct: gene PLAU; isolated enzyme; source not clearly stated
# Description: fluorometric protease assay, Z-Gly-Gly-Arg-AMC on urokinase
# kallikrein = test system: T5, kallikrein; assay: fluorometric protease assay, H-Pro-Phe-Arg-AMC; format: biochemical, Homo sapiens; settings: […] Tris-HCl, […] NaCl pH […] °C; read-out: IC50 ± SD (μM) / Kallikrein
# T5 construct: gene KLKB1
# Description: fluorometric protease assay, H-Pro-Phe-Arg-AMC on kallikrein
SMILES,IC50 ([1]; read-out: IC50 ± SD),IC50 (chymotrypsin),IC50 (trypsin),IC50 (urokinase),IC50 (kallikrein),IC50 ([1]; read-out: IC50 ± SD (nM) / HNE)
"CCC1(CC)C(=O)N(c2ccc(COc3ccc4ccc(=O)oc4c3)cc2)C1=O [compound 1, 3,3-diethyl-1-(4-(((2-oxo-2H-chromen-7-yl)oxy)methyl)phenyl)-azetidine-2,4-dione]",0.42 ± 0.09 nM,> 8 µM,> 1 µM,> 50 µM,,
CCC1(CC)C(=O)N(c2ccc(CBr)cc2)C1=O [compound 6],0.64 ± 0.03 nM,,,,,
CCC1(CC)C(=O)N(c2ccc(C(=O)OCc3ccccc3)cc2)C1=O [compound 8],0.96 ± 0.13 nM,,,,,
CCC1(CC)C(=O)N(c2ccc(C(=O)O)cc2)C1=O [compound 9],14.7 ± 5.55 nM,,,,,
"CCC1(CC)C(=O)N(c2ccc(CSc3nc4cc(C(=O)NCCCNc5ccc([N+](=O)[O-])c6nonc56)ccc4o3)cc2)C1=O [compound 16, 2-((4-(3,3-diethyl-2,4-dioxoazetidin-1-yl)benzyl)thio)-N-(3-((7nitrobenzo[c][1,2,5]oxadiazol-4-yl)amino)propyl)benzo[d]oxazole-5-carboxamide]",,,> 1 µM,> 2 µM,> 5 µM,0.85 ± 0.1 nM
CCC1(CC)C(=O)N(c2ccc(C(=O)NCCCNc3ccc([N+](=O)[O-])c4nonc34)cc2)C1=O [compound 17],,> 0.5 µM,> 1 µM,> 2 µM,> 3 µM,0.64 ± 0.03 nM
